Toxic doses and inconclusive results are not listed.

The subject of this assay is L1210 leukemia ip in BDF1 mice, survival T/C. Nature of the assay: NCI In Vivo Anticancer Drug Screen. Data for tumor model L1210 Leukemia (intraperitoneal) in B6D2F1 (BDF1) mice. Particulars: endpoint: mean survival time, higher = longer survival. An outline of the steps: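 Transplantable tumor model; survival measured in treated vs vehicle control mice. Value = treated/control.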

The mark [1] stands for this setting: dose: 50.0 mg/kg/injection, schedule: Q01DX009 (ip), vehicle: saline with Tween-80.
The mark [2] stands for this setting: dose: 100.0 mg/kg/injection, schedule: Q01DX009 (ip), vehicle: saline with Tween-80.
[3] abbreviates: dose: 100.0 mg/kg/injection, schedule: Q04DX003 (ip), vehicle: saline with Tween-80.
[4] abbreviates: dose: 100.0 mg/kg/injection, schedule: Q04DX002 (ip), vehicle: Klucel (hydroxypropylcellulose) (HPC).
The mark [5] stands for this setting: dose: 200.0 mg/kg/injection, schedule: Q04DX002 (ip), vehicle: Klucel (hydroxypropylcellulose) (HPC).
Setting [6] is: dose: 400.0 mg/kg/injection, schedule: Q04DX002 (ip), vehicle: Klucel (hydroxypropylcellulose) (HPC).
Setting [7] is: dose: 100.0 mg/kg/injection, schedule: Q04DX003 (ip), vehicle: Klucel (hydroxypropylcellulose) (HPC).
The mark [8] stands for this setting: dose: 200.0 mg/kg/injection, schedule: Q04DX003 (ip), vehicle: Klucel (hydroxypropylcellulose) (HPC).
Where [9] appears, read: dose: 200.0 mg/kg/injection, schedule: Q01DX009 (ip), vehicle: saline with Tween-80.

`CCOC(=O)c1cnn2c(SC)ncnc12`: the T/C reads like this: (dose: 25.0 mg/kg/injection, schedule: Q04DX003 (ip), vehicle: saline with Tween-80) 102 % of control; under setting [1], 102 % of control; (dose: 50.0 mg/kg/injection, schedule: Q04DX003 (ip), vehicle: saline with Tween-80) 104 % of control; under setting [2], 91 % of control; under setting [3], 107 % of control.

With `COc1ccc(C(=O)NO)cc1`, the T/C by setting is: (dose: 100.0 mg/kg/injection, schedule: Q01DX009 (ip), vehicle: carboxymethylcellulose (CMC)) 96 % of control; (dose: 200.0 mg/kg/injection, schedule: Q01DX009 (ip), vehicle: carboxymethylcellulose (CMC)) 102 % of control; (dose: 400.0 mg/kg/injection, schedule: Q01DX009 (ip), vehicle: carboxymethylcellulose (CMC)) 101 % of control.

For the compound `O=C1C2C3CC(c4ccccc43)C2N1S(=O)(=O)Cl` (configuration not stated), the T/C runs as follows: under setting [4], 105 % of control; under setting [5], 105 % of control; under setting [6], 105 % of control.

As to `CCCCN(C)CCNc1cc(C)nc(/N=C(\N)Nc2ccc(Cl)c(Cl)c2)n1`, the T/C is 103 % of control (dose: 18.75 mg/kg/injection, schedule: Q01DX009 (ip), vehicle: Klucel (hydroxypropylcellulose) (HPC)) and 97 % of control (dose: 37.5 mg/kg/injection, schedule: Q01DX009 (ip), vehicle: Klucel (hydroxypropylcellulose) (HPC)).

On to `CCOC(=O)CCSCC(C)(C)C(=O)OCC`, for which the T/C was 105 % of control (dose: 100.0 mg/kg/injection, schedule: Q04DX003 (ip), vehicle: saline); 105 % of control (dose: 200.0 mg/kg/injection, schedule: Q04DX003 (ip), vehicle: saline); 103 % of control (dose: 400.0 mg/kg/injection, schedule: Q04DX003 (ip), vehicle: saline).

As to `Cc1ccc(-c2nc(N)[nH]c(=O)c2CCCN(c2ccccc2)S(=O)(=O)c2ccc(C)cc2)cc1`, the T/C runs as follows: under setting [7], 102 % of control; under setting [8], 101 % of control; (dose: 400.0 mg/kg/injection, schedule: Q04DX003 (ip), vehicle: Klucel (hydroxypropylcellulose) (HPC)) 102 % of control.

On to `O=C(O)c1c(F)ccc([N+](=O)[O-])c1F`, for which the T/C is, setting by setting: (dose: 100.0 mg/kg/injection, schedule: Q04DX002 (ip), vehicle: saline) 108 % of control; (dose: 200.0 mg/kg/injection, schedule: Q04DX002 (ip), vehicle: saline) 103 % of control.

In the case of `COc1c2c(cc3c1N(C)C(=O)CC3C)C(C)CC(=O)N2` (configuration not stated), for the setting “dose: 75.0 mg/kg/injection, schedule: Q04DX003 (ip), vehicle: Klucel (hydroxypropylcellulose) (HPC)”, the T/C was 98 % of control.

On to `Clc1c(CI)ccc(CI)c1Cl`, for which the T/C by setting is: (dose: 6.25 mg/kg/injection, schedule: Q01DX009 (ip), vehicle: saline with Tween-80) 100 % of control; (dose: 12.5 mg/kg/injection, schedule: Q01DX009 (ip), vehicle: saline with Tween-80) 92 % of control; (dose: 25.0 mg/kg/injection, schedule: Q01DX009 (ip), vehicle: Klucel (hydroxypropylcellulose) (HPC)) 93 % of control; (dose: 25.0 mg/kg/injection, schedule: Q01DX009 (ip), vehicle: saline with Tween-80) 92 % of control; (dose: 50.0 mg/kg/injection, schedule: Q01DX009 (ip), vehicle: Klucel (hydroxypropylcellulose) (HPC)) 108 % of control; under setting [1], 89 % of control. In addition, under setting [7], the T/C was 89 % of control.

As to `CN(C)/N=N/c1nc[nH]c1C#N`, the T/C was 107 % of control under setting [2]; 110 % of control under setting [3]; 115 % of control under setting [9]; 98 % of control (dose: 200.0 mg/kg/injection, schedule: Q04DX003 (ip), vehicle: saline with Tween-80); 102 % of control (dose: 400.0 mg/kg/injection, schedule: Q04DX003 (ip), vehicle: saline with Tween-80).

As for `CCCc1cc(C(C)=O)c[n+](C2OC(COC(C)=O)C(OC(C)=O)C(OC(C)=O)C2OC(C)=O)c1` (configuration not stated), the T/C is 97 % of control (dose: 50.0 mg/kg/injection, schedule: Q01DX005 (ip), vehicle: water) and 97 % of control (dose: 100.0 mg/kg/injection, schedule: Q01DX005 (ip), vehicle: water).

`CCOC(=O)C(C(C)=O)C(CCCCO)C(C(C)=O)C(=O)OCC` (configuration not stated): the T/C is, setting by setting: (dose: 100.0 mg/kg/injection, schedule: Q01DX001 (ip), vehicle: saline) 97 % of control; (dose: 200.0 mg/kg/injection, schedule: Q01DX001 (ip), vehicle: saline) 101 % of control; (dose: 400.0 mg/kg/injection, schedule: Q01DX001 (ip), vehicle: saline) 94 % of control.

For `Nc1nc(=S)c2ncn(CN3CCCCC3)c2[nH]1`, the T/C (dose: 1.3 mg/kg/injection, schedule: Q01DX Z (ip), vehicle: carboxymethylcellulose (CMC)) is 112 % of control; the T/C (dose: 2.0 mg/kg/injection, schedule: Q01DX Z (ip), vehicle: carboxymethylcellulose (CMC)) was 123 % of control; the T/C (dose: 3.0 mg/kg/injection, schedule: Q01DX Z (ip), vehicle: carboxymethylcellulose (CMC)) was 154 % of control; the T/C (dose: 3.0 mg/kg/injection, schedule: Q01DX Z (ip), vehicle: saline) is 155 % of control; the T/C (dose: 4.5 mg/kg/injection, schedule: Q01DX Z (ip), vehicle: carboxymethylcellulose (CMC)) is 151 % of control; the T/C (dose: 4.5 mg/kg/injection, schedule: Q01DX Z (ip), vehicle: saline) is 166 % of control. Also, the T/C runs as follows: (dose: 7.0 mg/kg/injection, schedule: Q01DX Z (ip), vehicle: saline) 156 % of control; (dose: 10.0 mg/kg/injection, schedule: Q01DX Z (ip), vehicle: saline) 156 % of control.

`OCCC#CCCCOC1CCCCO1` (configuration not stated): the T/C was 105 % of control under setting [4], 90 % of control under setting [5] and 93 % of control under setting [6].

Take `CCS(=O)(=O)c1ccc(NC(=O)OC2CCCCCCC2)cc1`: the T/C by setting is: (dose: 100.0 mg/kg/injection, schedule: Q01DX001 (ip), vehicle: other) 93 % of control; (dose: 200.0 mg/kg/injection, schedule: Q01DX001 (ip), vehicle: other) 93 % of control; (dose: 400.0 mg/kg/injection, schedule: Q01DX001 (ip), vehicle: other) 93 % of control.

With `CC(=O)CC(=O)OCC1COCO1` (configuration not stated), the T/C (dose: 222.0 mg/kg/injection, schedule: Q01DX Z (ip), vehicle: methylcellulose (MC)) is 104 % of control; the T/C (dose: 333.0 mg/kg/injection, schedule: Q01DX Z (ip), vehicle: methylcellulose (MC)) is 95 % of control; the T/C (dose: 500.0 mg/kg/injection, schedule: Q01DX Z (ip), vehicle: methylcellulose (MC)) was 107 % of control.

With `O=[N+]([O-])c1ccn(Cc2ccccc2)c1`, the T/C is 97 % of control (dose: 100.0 mg/kg/injection, schedule: Q01DX001 (ip), vehicle: carboxymethylcellulose (CMC)); 88 % of control (dose: 200.0 mg/kg/injection, schedule: Q01DX001 (ip), vehicle: carboxymethylcellulose (CMC)); 92 % of control (dose: 400.0 mg/kg/injection, schedule: Q01DX001 (ip), vehicle: carboxymethylcellulose (CMC)).

Take `O=CNc1ccc2c3c(cccc13)CC2`: the T/C is, setting by setting: (dose: 100.0 mg/kg/injection, schedule: Q01DX001 (ip), vehicle: Klucel (hydroxypropylcellulose) (HPC)) 101 % of control; (dose: 200.0 mg/kg/injection, schedule: Q01DX001 (ip), vehicle: Klucel (hydroxypropylcellulose) (HPC)) 93 % of control; (dose: 400.0 mg/kg/injection, schedule: Q01DX001 (ip), vehicle: Klucel (hydroxypropylcellulose) (HPC)) 108 % of control.

Regarding `OCC[CH2][Sn]([c]1ccccc1)([c]1ccccc1)[c]1ccccc1`, the T/C is 101 % of control (dose: 6.25 mg/kg/injection, schedule: Q04DX002 (ip), vehicle: saline with Tween-80); 101 % of control (dose: 12.5 mg/kg/injection, schedule: Q04DX002 (ip), vehicle: saline with Tween-80); 87 % of control (dose: 25.0 mg/kg/injection, schedule: Q04DX002 (ip), vehicle: saline with Tween-80); 96 % of control under setting [1]; 96 % of control under setting [2]; 96 % of control under setting [9].

On to `N#CC12C(=N)CCC1C1C=CC2C1` (configuration not stated), for which the T/C is 100 % of control (dose: 6.25 mg/kg/injection, schedule: Q01DX009 (ip), vehicle: Klucel (hydroxypropylcellulose) (HPC)); 101 % of control (dose: 12.5 mg/kg/injection, schedule: Q01DX009 (ip), vehicle: Klucel (hydroxypropylcellulose) (HPC)); 89 % of control under setting [7]; 93 % of control under setting [8].

These data come from PubChem BioAssay AID248 (DTP/NCI, 2004).
